# From PubChem BioAssay (NCI)
#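 Test compounds were applied to cells in 96-well plates for 48 hours at 5 doses. GI50 = concentration required for 50% inhibition of growth. TGI: total growth inhibition.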
# Key:
# Assay in all cases: NCI-60 cell line screen, 48 h
# MCF7 breast = test system: MCF7 breast
# CCRF-CEM leukemia = test system: CCRF-CEM leukemia
# OVCAR-4 ovarian = test system: OVCAR-4 ovarian
# ACHN renal = test system: ACHN renal
# COLO 205 colon = test system: COLO 205 colon
# A549 NSCLC = test system: A549 NSCLC
# HT29 colon = test system: HT29 colon
# NCI-H522 lung = test system: NCI-H522 lung
# NCI-H226 lung = test system: NCI-H226 lung
# K-562 leukemia = test system: K-562 leukemia
Structure (SMILES),GI50 (MCF7 breast),TGI (MCF7 breast),GI50 (CCRF-CEM leukemia),TGI (CCRF-CEM leukemia),GI50 (OVCAR-4 ovarian),TGI (OVCAR-4 ovarian),GI50 (ACHN renal),TGI (ACHN renal),GI50 (COLO 205 colon),TGI (COLO 205 colon),GI50 (A549 NSCLC),TGI (A549 NSCLC),GI50 (HT29 colon),TGI (HT29 colon),GI50 (NCI-H522 lung),TGI (NCI-H522 lung),GI50 (NCI-H226 lung),TGI (NCI-H226 lung),GI50 (K-562 leukemia),TGI (K-562 leukemia)
CC1(C)[C@@H](OC(N)=O)[C@H]2O[C@H]2[C@]2(CO)[C@H]3CC[C@]4(C)[C@@H](c5ccc(=O)oc5)[C@@H](Cl)C[C@]4(O)C3=CC[C@@H]12,0.00745 µM,0.0512 µM,0.00768 µM,0.0264 µM,0.00545 µM,0.0157 µM,0.00515 µM,0.0118 µM,0.0109 µM,0.0506 µM,0.00469 µM,0.0088 µM,0.00796 µM,0.0238 µM,0.00455 µM,0.0147 µM,0.0061 µM,0.0152 µM,0.00978 µM,0.0547 µM
C=C1C(=O)OC2/C=C(/C)C(OC(C)=O)CC(O)/C(C)=C\C(OC(=O)/C(C)=C\C)C12 (stereo not given),,> 100 µM,,> 100 µM,,> 100 µM,,> 100 µM,,> 100 µM,,> 100 µM,,> 100 µM,,22.7 µM,,> 100 µM,,> 100 µM
O=C1c2ccccc2-c2c1c1ccccc1c(=O)n2CCN1CCOCC1,43.7 µM,> 100 µM,49.1 µM,> 100 µM,> 100 µM,> 100 µM,29.8 µM,92 µM,> 100 µM,> 100 µM,64.8 µM,> 100 µM,57.8 µM,> 100 µM,39.5 µM,> 100 µM,73.9 µM,> 100 µM,25.8 µM,73.5 µM
COc1ccc(OC)c(-c2c(C#N)c(N)nc(N3CCOCC3)c2C#N)c1,> 100 µM,> 100 µM,> 100 µM,> 100 µM,43.6 µM,> 100 µM,67.9 µM,> 100 µM,> 100 µM,> 100 µM,> 100 µM,> 100 µM,> 100 µM,> 100 µM,46.2 µM,> 100 µM,85.6 µM,> 100 µM,> 100 µM,> 100 µM
CCOc1ccccc1N=Nc1c(C)[nH]n(-c2nc(-c3ccccc3)cs2)c1=O,12.4 µM,> 100 µM,> 100 µM,> 100 µM,25 µM,> 84.5 µM,42.3 µM,> 100 µM,> 100 µM,> 100 µM,49.9 µM,> 100 µM,97.9 µM,> 100 µM,22.1 µM,87.6 µM,32.5 µM,> 100 µM,> 100 µM,> 100 µM
C[CH2][Sn]([CH2]C)([O]C(=O)C(OC(C)=O)c1ccccc1)[O]C(=O)C(OC(C)=O)c1ccccc1 (stereo not given),14.6 µM,27.8 µM,1.93 µM,6.15 µM,50 µM,> 100 µM,17.3 µM,31.1 µM,23.3 µM,72.9 µM,> 100 µM,> 100 µM,46.7 µM,> 100 µM,1.58 µM,4.35 µM,29 µM,92.7 µM,14.6 µM,45.9 µM
